Experiments:
[1] = system: PMΦ (peritoneal macrophages); assay: Macrophage chemotaxis assay (modified Boyden chamber); format: cell-based, mouse; details: for Macrophage chemotactic activity: migration over 4 h, compared with C140 and RANTES 25 ng/ml
Experimental: PMθ (0.5×10^6) were allowed to migrate towards chemoattractant (Chemerin140 or Chemerin peptides) in the bottom well of a modified Boyden chamber over 4 h. Filters were fixed in 4% formalin, then migrated cell nuclei were stained with DAPI and visualised. Serum free media (SFM) were used as a negative control and the macrophage chemoattractant RANTES (25 ng/ml; 3 nM) as a positive control. The graphs indicate mean Migration Index (Chemoattractant % threshold area/SFM % threshold area)±SEM for each treatment group (n=5-6). p<0.001 ***; p<0.01 **; p<0.05 * relative to SFM treated wells.
PMθ were recruited following a 4 day peritoneal stimulation with BioGEL beads. Peritoneal cavities of male C57B16/J mice were lavaged with 5 ml PBS-2 mM EDTA. Cells were centrifuged and resuspended in RPMI supplemented with 0.5% BSA and 25 mM Hepes. Cells (0.5×10^6) were allowed to migrate towards chemoattractant (C140, C17m or C17m+C140) in the bottom well over 4 h. Filters were fixed in 4% formalin, then nuclei were stained with DAPI and visualised. Serum free media was used as a negative control (−/−). Cells were preincubated with Pertussis toxin (PTX) for 30 mins before the chemotaxis assay. The bar graphs in FIG. 11 show the mean Migration Index±SEM for each treatment group. Each bar represents at least triplicate wells and at least 3 pictures taken per treatment. p<0.001 ***; p<0.01 **; p<0.05 * relative to SFM treated wells unless otherwise stated.
Cell migration was assessed by use of transwell membranes (ChemoTX, 6-mm diameter, 8-μm pore size). Briefly, BioGEL-elicited cells were harvested and placed on transwell membranes (250 000 cells/membrane in RPMI supplemented with 25 mM Hepes and 0.1% bovine serum albumin. Cells were allowed to migrate toward Chemerin peptides (1 pM-100 nM) for 4 h. Signal transduction via G protein-coupled receptors was blocked by preincubating cells with pertussis toxin (PTX, 200 ng/ml, Sigma-Aldrich) for 30 mins before placing cells on transwell membranes. Migrated cells on the underside of membranes were fixed (3% formaldehyde) and stained with DAPI. Migration was quantified as total pixel count of DAPI stained nuclei under the confocal microscope (2 photos/membrane and a minimum of 3 replicate wells per treatment). Images were analyzed using Metamorph Offline software to determine percentage threshold areas (TA) occupied by migrated cells. Migration indices were obtained by dividing treatment TA by serum-free media TA. For secondary chemotaxis assays ChemoTx 3-mm diameter, 8-μm pore membranes were used with 50 000 cells/membrane.

C57B16/J mice = assay: Intraperitoneal Chemerin15-mouse alone (no zymosan): peritoneal cell recruitment and TNFα; format: in vivo; details: 0.32 ng/kg i.p., 4 h
Experimental: Male C57B16/J mice (8-12 weeks) were injected intra-peritoneally with 0.5 ml PBS or 0.5 ml Chemerin15-mouse (0.32 ng/kg). After 4 hours three animals per treatment group were sacrificed and peritoneal cavities washed with 5 ml PBS-3 mM EDTA. Total cell counts were obtained using Trypan blue exclusion test. For determination of cellular composition (Neutrophils vs mononuclear phagocytes), cells were blocked with 2.4G2 anti-FcgRII/III mAB for 5 mins and stained with PE-conjugated anti-mouse Ly-6G and FITC-conjugated anti-mouse 7/4 mAB for 10 mins. Cells were fixed in 1% formaldehyde prior to FACS analysis with CellQuest software. Gates were constructed around two populations, the neutrophils (N; 7/4^high, Ly-6G^high) and inflammatory monocytes (Mo; 7/4^high, Ly-6G^low). C15 refer to Chemerin15-mouse. p<0.01 ** relative to PBS-treated. Ns refers to no statistically significant difference p>0.05.

peritoneal macrophages = assay: Zymosan recognition / phagocytosis by macrophages (FITC-zymosan, FACS); format: cell-based, mouse
Experimental: For in vitro recognition of zymosan by macrophages, peritoneal exudate cells were isolated by lavage with ice-cold 2 mM EDTA in PBS from mice that had been treated intraperitoneally 4 d before with Biogel beads (2% w/v). Macrophages were plated in 24-well plates at a density of 2.5×10^5 cells per well in Optimem medium. Cells were washed three times with medium before the addition of Fluorescein isothiocyanate (FITC)-labeled zymosan (Invitrogen) in recognition assays at macrophage/particle ratios of 10:1 in the presence of either 0.1 pM, 1 pM, 10 pM, 100 pM or 1 nM Chemerin15. Vehicle=control sample without Chemerin15. FITC-zymosan uptake was followed by FACS analysis and is expressed as a relative recognition index i.e the ratio of %® cells uptaking zymosan×the ratio of geometric means C15 treated macrophages/geometric mean of macrophages treated with vehicle.

[2] = system: C57B16/J mice, zymosan-induced peritonitis; assay: Zymosan-induced peritonitis in mice; format: in vivo, mouse; details: single i.p. dose; 4 h post-zymosan
[3] = system: Murine peritoneal macrophages (PMΦ); assay: Macrophage cytokine mRNA levels by qRT-PCR (IL-10, TGFβ), normalized to HPRT; format: cell-based, mouse; details: chemerin
Experimental: FIGS. 1A-F—FIGS. 1A and 1B illustrate that Chemerin140 suppresses production of inflammatory mediators by macrophages in a proteolysis dependent fashion. Supernatants from macrophages or activated macrophages (treated with 100 ng/ml LPS and 20 ng/ml interferon gamma were assayed for cytokine expression using Luminex and ELISA assays. Cells were incubated in the presence or absence of recombinant murine chemerin or dexamethasone at the indicated doses and in the absence or presence of the protease inhibitor leupeptin ([…]). FIG. 1C—Macrophage cytokine mRNA levels were quantitated by qRT-PCR (IL-10, TGFβ) and normalized to HPRT. FIG. 1D—PMΦ were pre-treated with chemerin (0.1-1 pM)±pertussis toxin (PTX; 200 ng/ml) prior to LPS/IFNγ-challenge. FIG. 1E—PMΦ were pre-treated with chemerin (1 pM) for 1 h±PTX and then stimulated with LPS/IFNγ for 4 h, 8 h or 15 h. ***, p<0.001; **, p<0.01; *, p<0.05 relative to LPS/IFNγ-treated samples. ###, p<0.001; ##, p<0.01; #, p<0.05 relative to chemerin-treated samples. […]
Total RNA was extracted using Qiagen RNeasy kits, reverse transcribed and subjected to qRT-PCR using the Sybr-Green method. Data was analysed using the 2-ΔΔCT method (Livak, K. J. & Schmittgen T. D. (2001), Methods 25:402-408).

Molecule	Macrophage chemotactic activity [1]	Concentration of maximal macrophage migration ([1]; tested 1 pM-100 nM) [pM]	Monocyte or neutrophil migration after peptide alone (FIG. 9) (C57B16/J mice)	Peritoneal TNFα after peptide alone (FIG. 9) (C57B16/J mice)	Macrophage phagocytosis of zymosan (FIG. 15) (peritoneal macrophages; 0.1 pM-1 nM, FITC-zymosan)	Concentration of greatest induction of macrophage phagocytosis (peritoneal macrophages; tested 0.1 pM-1 nM) [pM]	Lowest dose with significant anti-inflammatory effects (FIG. 14B) [2] [pg/mouse]	Effect of co-administration on C140-induced macrophage migration (FIG. 11) ([1]; C17m + C140 in bottom well, 4 h)	Induction of IL-10 mRNA expression (FIG. 1C) [3] [%]	Induction of TGFβ mRNA expression (FIG. 1C) [3] [%]
AGEDPHGYFLPGQFA (listed as Mus sp.) [C15]	little chemotactic activity	100	does not cause monocyte or neutrophil migration	significant reduction in TNFα	induces macrophage phagocytosis of zymosan	10	4			
AGEDPHGYFLPGQFAFS (listed as Mus sp.) [C17m]	no chemotactic activity							did not appear to affect macrophage migration to C140		
Chemerin: 140 amino acid mouse Chemerin protein of Sequence ID no: 34 (protein, listed as Mus sp.) TVGTEPELSETQRRSLQVALEEFHKHPPVQLAFQEIGVDRAEEVLFSAGTFVRLEFKLQQTNCPKKDWKKPECTIKPNGRRRKCLACIKMDPKGKILGRIVHCPILKQGPQDPQELQCIKIAQAGEDPHGYFLPGQFAFS									89	54
